Experimental data: the NIST ThermoML archive (doi:10.1016/j.jct.2019.01.007)

Settings: Liquid, Transpiration method

CCCCCCCCCCCCCCCCC(=O)OC [methyl heptadecanoate]
Settings | vapor or sublimation pressure [kPa]
337.9 K | 0.000259
339.75 K | 0.000298
341.8 K | 0.000371
342.85 K | 0.000395
345.85 K | 0.000532
347.95 K | 0.000685
350 K | 0.000803
354.3 K | 0.00114
357.5 K | 0.00144
360.6 K | 0.00195
362.5 K | 0.00206
365.25 K | 0.00272
366.85 K | 0.00301
369 K | 0.00377
372.3 K | 0.00464
376.2 K | 0.0058
379.2 K | 0.00772
382.25 K | 0.0089
385.65 K | 0.0111
387 K | 0.0126
389.25 K | 0.0152
391.3 K | 0.0176
393.4 K | 0.0186
396.2 K | 0.0246
399.2 K | 0.0302
402.35 K | 0.0355
405.3 K | 0.044
408.15 K | 0.0523
412.2 K | 0.0635

CCCCCCCCCCCCC(=O)OC [methyl tridecanoate]
Settings | vapor or sublimation pressure [kPa]
298.15 K | 0.000239
300.15 K | 0.000302
303.25 K | 0.00041
305.15 K | 0.000485
308.15 K | 0.000697
310.15 K | 0.000799
313.35 K | 0.00112
315.05 K | 0.0013
318.25 K | 0.00174
320.15 K | 0.00203
323.25 K | 0.00258
325.05 K | 0.00314
328.15 K | 0.00415
330.15 K | 0.00492
333.15 K | 0.00626
335.15 K | 0.00739
338.15 K | 0.00934
340.15 K | 0.0111
343.05 K | 0.0131
345.15 K | 0.0163
348.15 K | 0.0197
350.15 K | 0.023
353.15 K | 0.0286
355.15 K | 0.0338
